According to US10106853B2, “CUL4B as predictive biomarker for cancer treatment” (CORNELL UNIVERSITY, priority 2012, dated 2018):

Test system: γH2AX foci in BT474 cells
Experiment: Immunofluorescent detection of γH2AX foci
Assay type: cell-based, Human
Details: 2 μM CPT 2 hours, 1 hour repair
Description: FIG. 3. CUL4B^k/d BT474 cells are susceptible to CPT-induced DNA damage. A) Persistent DNA damage in CPT-treated BT474-CUL4B^k/d cells. Control or CUL4B^k/d BT474 cells were treated with 2 μM of CPT for the indicated time periods, replenished with CPT-free fresh medium, incubated at 37° C. for 1 hour to repair DNA damage, and subjected to immunoblotting with the anti-γH2AX antibody to determine the extent of DNA damage. B) Immunofluorescent detection of γH2AX foci in control or CUL4B^k/d BT474 cells following CPT treatment. BT474 cells were infected with lentiviral control shRNA (shCtrl) or shCUL4B, treated with 2 μM CPT for 2 hours and replenished with CPT-free fresh medium, incubated at 37° C. for 1 hour to repair DNA damage. γH2AX foci were detected by immunofluorescent assay with the rabbit anti-γH2AX antibody and goat anti-rabbit secondary antibody conjugated with cy3 (red). Nuclei were stained with DAPI (blue). C, D) Percentage of γH2AX-positive cells and number of persistent γH2AX foci in a total of 300 γH2AX-positive cells. All values were presented as mean±S.E. Statistical significance was assessed by a two-tailed unpaired Student t-test (***: p<0.001).
Cells were initially grown on chamber slides. […] After PBS washes, cells were mounted with FluroSave™ Reagent (Calbiochem), and visualized under the fluorescence microscope, and images were captured via camera.

Structure (SMILES): CC[C@@]1(O)C(=O)OCc2c1cc1n(c2=O)Cc2cc3ccccc3nc2-1 [CPT, (S)-4-ethyl-4-hydroxy-1H-pyrano[3′,4′:6,7]indolizino[1,2-b]quinoline-3,14-(4H, 12H)-dione]
- Cells with accumulation of γH2AX foci (CPT-treated CUL4B k/d BT474 cells): 50%
- Cells with accumulation of γH2AX foci (CPT-treated control BT474 cells): 20%
